Assay results published in patent US8394770B2 (priority 2007, dated 2013).
pKd: −log10 of the molar value. Where “and” joins values, the source holds several entries; their conditions need not be identical. Identical values can stand only once. Entries after “also recorded” stand apart in the source; their conditions may differ.

Legend:
hKv1.4 = hKv1.4 (Homo sapiens, UniProt P22459); experiment: Patch-clamp block of fast inactivation-removed hKv1.4 (Kv1.4ΔN) channels in Cos-7 cells; conditions: 10 nM
Sequence of hKv1.4 (P22459 148-653): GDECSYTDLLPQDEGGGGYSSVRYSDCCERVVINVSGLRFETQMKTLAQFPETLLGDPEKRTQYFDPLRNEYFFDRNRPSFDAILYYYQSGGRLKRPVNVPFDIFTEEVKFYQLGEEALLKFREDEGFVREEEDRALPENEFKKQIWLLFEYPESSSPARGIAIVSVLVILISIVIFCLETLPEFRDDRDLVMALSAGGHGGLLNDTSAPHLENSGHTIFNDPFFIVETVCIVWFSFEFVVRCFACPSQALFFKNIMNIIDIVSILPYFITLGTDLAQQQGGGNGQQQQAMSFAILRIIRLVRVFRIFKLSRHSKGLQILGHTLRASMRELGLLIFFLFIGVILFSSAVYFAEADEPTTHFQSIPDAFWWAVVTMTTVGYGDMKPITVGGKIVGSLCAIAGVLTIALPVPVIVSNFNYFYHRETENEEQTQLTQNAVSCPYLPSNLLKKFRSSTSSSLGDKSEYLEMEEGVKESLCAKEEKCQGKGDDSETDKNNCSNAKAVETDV

rKv2.1 = biological target: T1, rKv2.1 (Rattus norvegicus, UniProt P15387); experiment: Patch-clamp block of rKv2.1 channels expressed in Cos-7 cells; conditions: 10 nM
T1 sequence (P15387 1-857): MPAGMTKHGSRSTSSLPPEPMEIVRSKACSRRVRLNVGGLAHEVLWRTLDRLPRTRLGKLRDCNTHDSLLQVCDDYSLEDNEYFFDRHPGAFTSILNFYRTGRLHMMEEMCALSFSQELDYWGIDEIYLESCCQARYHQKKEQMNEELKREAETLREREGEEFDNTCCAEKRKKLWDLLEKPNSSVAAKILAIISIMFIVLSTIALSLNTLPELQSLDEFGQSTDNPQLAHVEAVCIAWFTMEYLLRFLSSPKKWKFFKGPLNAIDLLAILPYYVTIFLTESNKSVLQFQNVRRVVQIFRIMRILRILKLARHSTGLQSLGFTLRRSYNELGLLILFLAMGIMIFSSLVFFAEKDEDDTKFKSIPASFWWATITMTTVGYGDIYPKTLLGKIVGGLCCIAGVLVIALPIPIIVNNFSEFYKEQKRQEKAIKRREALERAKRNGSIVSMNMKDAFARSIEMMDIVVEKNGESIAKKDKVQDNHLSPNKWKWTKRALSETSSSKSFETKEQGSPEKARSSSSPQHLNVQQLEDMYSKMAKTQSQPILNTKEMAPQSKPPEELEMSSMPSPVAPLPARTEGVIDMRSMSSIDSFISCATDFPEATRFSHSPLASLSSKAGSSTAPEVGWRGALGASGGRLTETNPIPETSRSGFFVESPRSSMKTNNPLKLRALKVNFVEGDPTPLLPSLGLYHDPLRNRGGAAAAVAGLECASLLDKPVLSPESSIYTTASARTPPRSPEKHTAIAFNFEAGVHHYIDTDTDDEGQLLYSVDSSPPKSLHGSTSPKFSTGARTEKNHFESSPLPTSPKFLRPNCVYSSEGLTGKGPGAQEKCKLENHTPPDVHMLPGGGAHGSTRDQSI

hIKCa1 = hIKCa1 (Homo sapiens, UniProt O15554); experiment: Patch-clamp block of recombinant hIKCa1 channels expressed in Cos-7 cells (voltage ramps)
Sequence of hIKCa1 (O15554 whole entry): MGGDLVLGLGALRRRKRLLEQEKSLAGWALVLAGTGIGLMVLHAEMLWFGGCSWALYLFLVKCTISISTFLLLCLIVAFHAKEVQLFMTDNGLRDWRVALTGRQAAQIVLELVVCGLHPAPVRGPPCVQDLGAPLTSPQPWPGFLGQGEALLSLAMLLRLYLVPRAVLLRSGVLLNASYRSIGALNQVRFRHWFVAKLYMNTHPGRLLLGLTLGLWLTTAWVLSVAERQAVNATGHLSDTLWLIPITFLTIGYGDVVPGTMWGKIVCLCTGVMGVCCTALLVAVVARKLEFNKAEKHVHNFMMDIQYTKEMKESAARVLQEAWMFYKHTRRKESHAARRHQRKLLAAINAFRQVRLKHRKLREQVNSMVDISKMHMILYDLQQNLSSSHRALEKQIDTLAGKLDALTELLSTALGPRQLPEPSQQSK

hERG channel = hERG channel (Homo sapiens, UniProt Q12809); experiment: Patch-clamp block of hERG channels stably expressed in HEK-293 cells; conditions: 10 nM
hKv1.5 = hKv1.5 (Homo sapiens, UniProt P22460); experiment: Patch-clamp block of hKv1.5 channels stably expressed in MEL cells; conditions: 10 nM
hKv1.2 = hKv1.2 (Homo sapiens, UniProt P16389); experiment: Patch-clamp block of hKv1.2 channels expressed in Cos-7 cells; conditions: for remaining current fraction (RCF) hKv1.2: n=3
Sequence of hKv1.2 (P16389 whole entry): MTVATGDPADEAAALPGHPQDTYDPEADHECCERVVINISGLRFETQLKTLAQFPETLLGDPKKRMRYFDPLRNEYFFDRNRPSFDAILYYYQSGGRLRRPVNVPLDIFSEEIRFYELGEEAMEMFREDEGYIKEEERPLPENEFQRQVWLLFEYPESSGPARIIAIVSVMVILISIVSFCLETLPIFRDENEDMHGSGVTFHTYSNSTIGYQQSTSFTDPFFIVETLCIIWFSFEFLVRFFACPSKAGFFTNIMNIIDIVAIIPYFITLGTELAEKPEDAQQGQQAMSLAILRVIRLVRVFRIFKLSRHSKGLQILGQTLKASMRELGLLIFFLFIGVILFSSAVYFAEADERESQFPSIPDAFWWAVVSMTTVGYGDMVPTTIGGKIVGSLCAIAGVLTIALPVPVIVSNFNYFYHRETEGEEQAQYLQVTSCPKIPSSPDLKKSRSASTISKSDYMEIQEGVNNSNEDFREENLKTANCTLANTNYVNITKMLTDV

hNaV1.5 = hNaV1.5 (Homo sapiens, UniProt Q14524); experiment: Patch-clamp block of cardiac voltage-gated Na+ channel NaV1.5 expressed in Cos-7 cells; conditions: 10 nM
Sequence of hNaV1.5 (Q14524 whole entry): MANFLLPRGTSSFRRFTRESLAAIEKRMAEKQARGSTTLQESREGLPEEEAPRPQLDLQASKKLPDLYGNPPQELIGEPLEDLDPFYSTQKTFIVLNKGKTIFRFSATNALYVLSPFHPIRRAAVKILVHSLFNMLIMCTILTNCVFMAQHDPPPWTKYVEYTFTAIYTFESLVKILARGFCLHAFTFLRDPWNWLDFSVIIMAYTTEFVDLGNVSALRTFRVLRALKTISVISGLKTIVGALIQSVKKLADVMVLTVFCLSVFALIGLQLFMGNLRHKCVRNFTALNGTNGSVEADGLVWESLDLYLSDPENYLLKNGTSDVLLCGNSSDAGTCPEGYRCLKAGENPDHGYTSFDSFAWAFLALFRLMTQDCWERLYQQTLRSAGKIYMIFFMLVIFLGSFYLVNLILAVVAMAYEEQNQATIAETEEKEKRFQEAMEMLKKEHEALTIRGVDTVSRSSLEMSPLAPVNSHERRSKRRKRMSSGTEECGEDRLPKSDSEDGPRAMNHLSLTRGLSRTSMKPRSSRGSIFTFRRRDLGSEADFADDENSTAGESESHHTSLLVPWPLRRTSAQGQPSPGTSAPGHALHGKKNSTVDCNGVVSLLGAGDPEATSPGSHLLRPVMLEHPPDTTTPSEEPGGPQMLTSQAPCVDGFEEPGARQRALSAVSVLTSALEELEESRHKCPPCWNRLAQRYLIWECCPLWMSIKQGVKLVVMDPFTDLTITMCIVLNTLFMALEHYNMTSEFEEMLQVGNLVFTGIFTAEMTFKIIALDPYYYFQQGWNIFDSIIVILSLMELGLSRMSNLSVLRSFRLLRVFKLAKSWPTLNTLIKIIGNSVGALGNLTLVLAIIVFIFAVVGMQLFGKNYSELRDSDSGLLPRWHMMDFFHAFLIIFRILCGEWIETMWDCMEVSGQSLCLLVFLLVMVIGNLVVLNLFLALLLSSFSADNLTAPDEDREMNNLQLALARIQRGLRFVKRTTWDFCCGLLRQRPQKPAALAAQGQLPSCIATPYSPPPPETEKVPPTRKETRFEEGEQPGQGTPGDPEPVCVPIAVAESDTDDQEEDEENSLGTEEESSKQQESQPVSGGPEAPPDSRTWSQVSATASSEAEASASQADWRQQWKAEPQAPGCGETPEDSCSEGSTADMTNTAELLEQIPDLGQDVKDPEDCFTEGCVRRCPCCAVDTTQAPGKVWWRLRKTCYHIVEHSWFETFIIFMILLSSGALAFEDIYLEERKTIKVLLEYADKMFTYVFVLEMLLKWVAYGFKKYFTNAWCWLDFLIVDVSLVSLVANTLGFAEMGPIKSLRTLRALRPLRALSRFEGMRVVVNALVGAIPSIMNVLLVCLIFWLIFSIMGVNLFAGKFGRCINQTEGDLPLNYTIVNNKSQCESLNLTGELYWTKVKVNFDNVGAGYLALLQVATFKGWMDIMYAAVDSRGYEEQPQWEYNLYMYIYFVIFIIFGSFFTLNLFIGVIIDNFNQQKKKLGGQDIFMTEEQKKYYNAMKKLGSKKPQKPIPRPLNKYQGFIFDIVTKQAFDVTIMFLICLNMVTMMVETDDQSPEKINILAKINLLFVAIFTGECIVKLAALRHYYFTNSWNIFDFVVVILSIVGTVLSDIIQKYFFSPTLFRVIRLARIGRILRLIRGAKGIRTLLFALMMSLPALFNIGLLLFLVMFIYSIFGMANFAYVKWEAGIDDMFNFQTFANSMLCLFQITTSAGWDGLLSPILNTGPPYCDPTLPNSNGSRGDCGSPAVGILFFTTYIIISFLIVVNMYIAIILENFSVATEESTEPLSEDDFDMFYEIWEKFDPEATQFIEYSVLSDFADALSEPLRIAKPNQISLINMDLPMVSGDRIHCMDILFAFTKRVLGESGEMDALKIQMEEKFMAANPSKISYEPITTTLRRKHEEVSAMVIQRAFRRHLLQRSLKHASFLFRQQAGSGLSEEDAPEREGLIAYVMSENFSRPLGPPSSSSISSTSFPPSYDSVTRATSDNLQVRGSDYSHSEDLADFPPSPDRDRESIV

rats = experiment: Delayed-type hypersensitivity (DTH) response in DNFB-sensitized rats, ear thickness; type: in vivo, rat; conditions: single dose of 10 micrograms, 24 hours
Text: In order to perform this kind of experiment we set up a protocol to study DTH response in rats. The system used is basically that described by Phanuphak et al., 1974. In brief, two groups of rats (3 or 5 animals each) were sensitized by applications of 40 microliters of 0.7% DNFB in 4:1 proportion of acetone: olive oil solution, in two consecutive days (days one and two), after gentle shaving of the dorsal-back region of the animals. After 7 days of the second application of the sensitizing solution, the animals were challenged by a single application of 20 microliter of 0.4% DNFB dissolved in the acetone: olive oil solution described above. This solution was spread over the dorsal surface of the right-side ears and allowed to dry, whereas the left-side ears were spread with only the vehicle solution (acetone:olive oil). On day eight of the protocol, a subcutaneous injection of 100 microliter of phosphate saline buffer pH 7.8 (PBS) was applied to each one of the animals used as control, whereas to the experimental group of rats, an amount of 10 micrograms pure Vm24 in 100 microliters PBS was subcutaneously applied. The thickness of both ears of all animals was measured 24 hours after of the application of Vm24.

hBK (KCa1.1) = hBK (KCa1.1) (Homo sapiens, UniProt Q12791); experiment: Patch-clamp block of hBK (KCa1.1) channels expressed in tsA-201 cells; conditions: 10 nM
mKv1.1 = mKv1.1 (Mus musculus, UniProt P16388); experiment: Patch-clamp block of mKv1.1 channels stably expressed in L929 cells; conditions: for remaining current fraction (RCF) mKv1.1: n=3
Sequence of mKv1.1 (P16388 whole entry): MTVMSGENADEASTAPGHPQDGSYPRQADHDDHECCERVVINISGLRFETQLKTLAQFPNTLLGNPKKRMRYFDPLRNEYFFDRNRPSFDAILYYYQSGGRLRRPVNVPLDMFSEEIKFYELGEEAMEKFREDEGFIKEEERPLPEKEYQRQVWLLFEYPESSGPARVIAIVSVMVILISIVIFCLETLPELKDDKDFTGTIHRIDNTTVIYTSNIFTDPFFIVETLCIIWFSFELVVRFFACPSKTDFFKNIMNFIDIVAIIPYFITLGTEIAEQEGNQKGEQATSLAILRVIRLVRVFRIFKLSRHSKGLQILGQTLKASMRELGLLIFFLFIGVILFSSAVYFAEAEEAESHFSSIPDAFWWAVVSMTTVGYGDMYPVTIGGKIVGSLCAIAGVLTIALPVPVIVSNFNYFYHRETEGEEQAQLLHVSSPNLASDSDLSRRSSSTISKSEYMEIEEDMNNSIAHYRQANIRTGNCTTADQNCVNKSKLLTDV

mice = experiment: In vivo toxicity / lethality test by injection into mice; conditions: injected
hKv1.3 channels = hKv1.3 channels (Homo sapiens, UniProt P22001); experiment: Whole-cell patch-clamp block of hKv1.3 channels endogenously expressed in human peripheral blood T cells; type: cell-based; set-up: channels expressed endogenously in human peripheral blood T cells; endogenous in cells; host or cells: human peripheral blood T lymphocytes from healthy volunteers, PHA-stimulated
Sequence of hKv1.3 channels (P22001 whole entry): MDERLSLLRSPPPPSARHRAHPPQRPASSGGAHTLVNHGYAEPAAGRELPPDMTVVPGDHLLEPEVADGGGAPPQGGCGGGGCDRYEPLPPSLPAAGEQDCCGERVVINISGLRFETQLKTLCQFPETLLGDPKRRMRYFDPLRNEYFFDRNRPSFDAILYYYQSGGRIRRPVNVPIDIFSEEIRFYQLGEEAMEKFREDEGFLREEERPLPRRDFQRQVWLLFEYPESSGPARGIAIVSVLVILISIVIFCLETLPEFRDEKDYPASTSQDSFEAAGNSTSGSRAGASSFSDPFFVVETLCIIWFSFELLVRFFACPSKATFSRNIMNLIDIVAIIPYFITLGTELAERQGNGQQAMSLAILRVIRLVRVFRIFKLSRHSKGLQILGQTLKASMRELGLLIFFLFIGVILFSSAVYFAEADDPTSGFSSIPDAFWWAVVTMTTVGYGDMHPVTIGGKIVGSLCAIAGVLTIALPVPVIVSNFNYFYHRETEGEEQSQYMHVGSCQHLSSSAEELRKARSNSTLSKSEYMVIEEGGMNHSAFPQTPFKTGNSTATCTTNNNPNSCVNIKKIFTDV

CC[C@H](C)[C@H](NC(=O)[C@H](C)NC(=O)[C@H](C)NC(=O)[C@H](C)N)C(=O)N[C@@H](CO)C(=O)N[C@H]1CSSC[C@@H]2NC(=O)[C@H](CCCCN)NC(=O)CNC(=O)[C@H](CC(N)=O)NC(=O)[C@H](CCCCN)NC(=O)[C@@H]3CSSC[C@@H](C(N)=O)NC(=O)[C@H](Cc4ccc(O)cc4)NC(=O)[C@H](Cc4ccc(O)cc4)NC(=O)[C@@H]4CSSC[C@H](NC(=O)[C@H](CCCCN)NC(=O)[C@@H]5CCCN5C(=O)[C@@H]5CCCN5C(=O)[C@H](CSSC[C@H](NC(=O)[C@H](CCCCN)NC(=O)[C@H](CCCNC(=N)N)NC(=O)[C@H](CC(N)=O)NC(=O)[C@H](CCSC)NC2=O)C(=O)N[C@@H](CCCCN)C(=O)N4)NC(=O)[C@H](CCC(=O)O)NC(=O)[C@@H]2CCCN2C(=O)[C@H](CO)NC(=O)CNC(=O)[C@H](C(C)C)NC1=O)C(=O)N[C@@H](CCCNC(=N)N)C(=O)N[C@@H](C)C(=O)N[C@@H](CCC(N)=O)C(=O)NCC(=O)N3 [Vm24]
effect on hKv1.4 current (hKv1.4): practically insensitive; also recorded: does not modify | effect on rKv2.1 current (rKv2.1): lack of blockade; also recorded: does not modify | pKd (hIKCa1): ~7.85 | selectivity for hKv1.3 over hIKCa1 (hIKCa1): ≥ 4500 fold | block of hIKCa1 (hIKCa1; 1 nM): practically does not blocks | time to reach equilibrium block of hIKCa1 (hIKCa1; 10 nM): 4.5 min | inhibition at 0.01 µM (hIKCa1; COS-7, read-out: current inhibition hIKCa1, 10 nM): ~40% | remaining activity at 0.01 µM (hIKCa1; COS-7, read-out: slope s of current-voltage relationship, % of control): ~52% | reversal of hIKCa1 block on wash-out (hIKCa1; after 10 nM, in 2.5 min toxin-free solution): fully reversed | effect on hERG current (hERG channel): lack of blockade; also recorded: does not modify | effect on hKv1.5 current (hKv1.5): practically insensitive; also recorded: does not modify | pKd (hKv1.2): 8.00 to 8.30 | selectivity for hKv1.3 over hKv1.2 (hKv1.2): ≥ 1500 fold | remaining current fraction (RCF) hKv1.2 (hKv1.2; 1 nM): 0.81±0.015 | time for equilibrium block of hKv1.2 to develop (hKv1.2; 10 nM): 5.5 min | remaining current fraction (RCF) hKv1.2 (hKv1.2; 10 nM): 0.54±0.08 | reversibility of hKv1.2 block (hKv1.2; after 10 nM, wash-out): not fully reversible | effect on NaV1.5 current (hNaV1.5): lack of blockade; also recorded: does not modify | inflammation of the ear (thickness, unchallenged ear subtracted) (rats): no more than 0.10 mm | effect on hBK current (hBK (KCa1.1)): lack of blockade; also recorded: does not modify | pKd (mKv1.1): 7.40 to 7.52 | selectivity for hKv1.3 over mKv1.1 (mKv1.1): ≥ 10000 fold | remaining current fraction (RCF) mKv1.1 (mKv1.1; 1 nM): 0.97±0.02 | time for equilibrium block of mKv1.1 to develop (mKv1.1; 10 nM): 6 min | remaining current fraction (RCF) mKv1.1 (mKv1.1; 10 nM): 0.80±0.02 | inhibition at 0.01 µM (mKv1.1; L929, read-out: current inhibition mKv1.1): 20 to 50% | toxicity / symptoms of intoxication in mice (mice; up to 200 microgram per mouse of 20 grams (10,000 microgram/kilogram)): not toxic; also recorded: no observable symptoms of intoxication | toxicity in experimental animals (mice; up to 10,000 microgram per 20 gram mouse weight (so in the source)): not toxic | block of hKv1.3 current (hKv1.3 channels; 3 pM): over 50% | level at which loss of current saturates, % of the peak recorded in control solution (hKv1.3 channels; 3 pM, 10.5-minute application): ~36% | block of hKv1.3 current (words) (hKv1.3 channels; 0.3 nM): full block | block of hKv1.3 current (words) (hKv1.3 channels; 1 nM): completely disappeared; also recorded: full block; also recorded: blocks hKv1.3 channels completely; also recorded: almost completely blocked | blockage of hKv1.3 current (hKv1.3 channels; 10 nM): 100% | time for equilibrium block of hKv1.3 to develop (hKv1.3 channels; 10 nM): 3.5 min | remaining current fraction (RCF) hKv1.3 (hKv1.3 channels; 10 nM, mean±SEM, n=3): 0.01±0.01 | fraction of blocked hKv1.3 current recovered (hKv1.3 channels; 30 minute washout after 3 pM): one third | Hill coefficient n (hKv1.3 channels; dose-response fit, hKv1.3): ~1 | pKd (hKv1.3 channels; fit of dose-response of remaining current fraction, human T cells, stated to be an overestimate of the real Kd, read-out: Kd (dissociation constant) for hKv1.3): 11.54 and > 11.52 | off rate (hKv1.3 channels; from wash-out time constant after 3 pM): ~0.00026 s⁻¹
